This note sets out measurements from patent US20210179680A1, “POLYPEPTIDE, DERIVATIVES THEREOF, AND APPLICATION THEREOF IN PREPARATION OF DRUGS HAVING RESISTANCE TO PULMONARY FIBROSIS” (priority 2016, published 2021).

Bridge positions count the residues as written; N and C are the ends. Square brackets hold non-standard residues; d marks the D form. Peptide text beside a SMILES is read from it. S5 = C=CCCC[C@](C)(N)C(=O)O

Assay [1] deals with mice with bleomycin-induced pulmonary fibrosis. Briefly: Pulmonary function (Flexivent) in mice with pulmonary fibrosis. The format is in vivo, C57BL/6 mice. Particulars: Table 3 groups, 2 mg/kg i.p.; for Dynamic compliance (mL/cmH2O) / Dynamic elasticity (cmH2O./mL) / Dynamic resistance (cmH2O · s/Ml) / Inspiratory capacity: 28th day after model construction; for pulmonary function of mice with pulmonary fibrosis (in words): FIG. 11. The protocol: (§1) Male C57BL/6 mice were fasted overnight, then anesthetized with 45 mg/kg sodium pentobarbital by injection intraperitoneally (i.p.), and intratracheally injected with bleomycin at a dose of 3 U/kg. The specific operation steps are as follows: cut the neck skin of the mouse with as little trauma as possible, expose the trachea with the assistance of elbow ophthalmic forceps, puncture the trachea and inject about 50 μL of bleomycin into the trachea with a microsyringe, rotate the mouse quickly and stand it upright for 5 minutes in order to make bleomycin evenly enter the left and right lobe, thereby constructing an animal model. The whole operation was performed at a surgical table at about […]. Mice in the sham operation group were intratracheally injected with an equal amount of physiological saline for injection.
(§2) Pulmonary function is a gold indicator for clinical detection of pulmonary fibrosis in patients. The decline of lung function is generally accompanied by an aggravation of fibrosis, while the improvement of lung function generally represents the recovery of lung tissue structure. Pulmonary fibrosis models were prepared according to the method described in Example 2 and administered in groups according to Table 3. On the 28th day after the construction of the animal model, the mice were anesthetized with sodium pentobarbital (45 mg/kg, i.p.). Lung function was tested by the Flexivent Small-animal respiratory mechanics and the testing methods were TLC and SnapShots (Testing method refers to Lv X, Wang X, Li K, et al. Rupatadine Protects against Pulmonary Fibrosis by Attenuating PAF-Mediated Senescence in Rodents [J]. PloS one, 2013, 8(7): e68631).
as §2, with “lung function also generally represents” for “lung function generally represents”, “to Table 9. 28 days later, the mice” for “to Table 3. On the 28th day after the construction of the animal model, the mice”, “Senescence in Rodents[J]. PloS one,” for “Senescence in Rodents [J]. PloS one,”

The test system is the same in assay [2]. Briefly: Hydroxyproline content in lung of mice with pulmonary fibrosis. Particulars: Table 3 groups, 2 mg/kg i.p.; left lung lobes; chloramine-T method. The format is in vivo, C57BL/6 mice. How it is done:
as §1
Hydroxyproline accounts for 13.4% (w/w) of collagen, and extremely small amount of elastin, while it is absent in other proteins. […] Pulmonary fibrosis models were prepared according to the method described in Example 2 and administered in groups according to Table 3. The content of hydroxyproline in the lobes of left lung of the animals was measured 28 days later, and the condition of pulmonary fibrosis was evaluated.
The specific method is as follows: the mice in the animal model prepared in Example 2 was feed in a SPF animal room and treated with polypeptide according to the dosing schedule of Table 3, and all left lobes of lung of the experimental animal was taken on the 21st day after the animal model was constructed and the wet weight was recorded. Then 10% (w/w) tissue homogenate was prepared by ultrasonic homogenization using physiological saline. About 150 μL of homogenate supernatant was taken, and 500 μL of alkali hydrolysate was added (provided by Hydroxyproline alkaline hydrolysis kit of Nanjing Jiancheng Bioengineering Technology Co., Ltd.). After vortex mixing, the mixture was treated with alkaline hydrolysis for 40 min under conditions of 120° C., 0.1 Kpa. After adjusting the pH value, the volume was held constant, and the supernatant was taken after performing activated carbon treatment. The hydroxyproline was determined according to the chloramine-T method (the method of the present example refers to the instruction provided with kit, which was purchased from Nanjing Jiancheng Bioengineering Technology Co., Ltd.). […] In FIG. 10, “##” represents that P value is less than 0.01 when comparing the content of hydroxyproline in the administration group with that in the sham operation group; and “*” represents that P value is less than 0.05 and“**” represents that P value is less than 0.01 when comparing the content of hydroxyproline in the administration group with that in bleomycin group.
Hydroxyproline accounts for 13.4% (w/w) of collagen, and accounts for extremely small amount of elastin, while it is absent in other proteins. […] Pulmonary fibrosis models were prepared according to the method described in Example 2 and administered in groups according to Table 3. The content of hydroxyproline in the all lobes of left lung of the animals was measured 28 days later, and the condition of pulmonary fibrosis was evaluated.
The specific method is as follows: the mice in the animal model prepared in Example 2 was feed in an SPF animal room and treated with polypeptide according to the dosing schedule of Table 3, and all the left lobes of lung of the experimental animal was taken on the 21st day after the animal model was constructed and the wet weight was recorded. Then 10% (w/w) tissue homogenate was prepared by ultrasonic homogenization using physiological saline. About 150 μL of homogenate supernatant was taken, and 500 μL of alkali hydrolysate was added (provided by Hydroxyproline alkaline hydrolysis kit of Nanjing Jiancheng Bioengineering Technology Co., Ltd.). After vortex mixing, the mixture was treated with alkaline hydrolysis for 40 min under conditions of 120° C., 0.1 Kpa. […]

In assay [3] the target is T1, TRB3/MDM2 protein interaction (Homo sapiens, UniProt Q96RU7).
T1 construct: host or cells: BEAS-2B
T1 sequence (Q96RU7 1-358): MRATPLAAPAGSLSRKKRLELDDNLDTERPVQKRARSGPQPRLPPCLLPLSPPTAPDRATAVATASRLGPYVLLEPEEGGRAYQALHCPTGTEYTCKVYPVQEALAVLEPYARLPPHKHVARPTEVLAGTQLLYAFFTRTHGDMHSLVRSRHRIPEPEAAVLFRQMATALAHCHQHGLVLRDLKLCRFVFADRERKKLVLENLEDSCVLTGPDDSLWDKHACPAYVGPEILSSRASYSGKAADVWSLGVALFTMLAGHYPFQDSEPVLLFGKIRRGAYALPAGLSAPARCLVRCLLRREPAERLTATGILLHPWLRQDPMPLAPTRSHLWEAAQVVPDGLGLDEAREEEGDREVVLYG
Briefly: Co-immunoprecipitation: inhibition of binding of MDM2 to TRB3 in BEAS-2B cells. Format: cell-based. Particulars: BEAS-2B cells with TRB3 expression plasmid, 1 mg/mL polypeptide, 12 hours, co-IP with MDM2 antibody. How it is done:
1. Human lung epithelial BEAS-2B cells (purchased from Institute of Basic Medical Sciences, Chinese Academy of Medical Sciences) were seeded in a 90 mm^2 culture dish. After the cells were adhered to the wall of culture dish, the TRB3 expression plasmid were transferred to the cells according to the method described in Example 5. After 24 hours, 1 mg/mL of the polypeptides MR2, S1, S2, S3, S4, S5, S6, S7, S8, S9, S10 or S11 prepared in Example 1 were added respectively, and the cells were incubated for 12 hours in a 37° C. incubator and then harvested.
2. Co-immunoprecipitation with MDM2 antibody was performed according to the method described in Example 3, followed by detection using TRB3 antibody.

Take `CSCC[C@H](NC(=O)[C@H](CC(C)C)NC(=O)[C@@H](N)Cc1c[nH]cn1)C(=O)N[C@@H](C)C(=O)N[C@@H](CS)C(=O)N[C@@]1(C)CCCC=CCCC[C@@](C)(C(=O)N[C@@H](CCCCN)C(=O)N[C@@H](CC(C)C)C(=O)N[C@@H](CCCCN)C(=O)N[C@@H](CCCCN)C(=O)N[C@@H](CCCNC(=N)N)C(=O)O)NC(=O)[C@H](C)NC(=O)[C@H](CS)NC(=O)[C@H]([C@@H](C)O)NC1=O` [S6, His-Leu-Met-Ala-Cys-S5-Thr-Cys-Ala-S5-Lys-Leu-Lys-Lys-Arg] (H-HLMAC[S5]TCA[S5]KLKKR-OH; staple 6-10; N-terminus and C-terminus assumed): in assay [1], the “Dynamic compliance (mL/cmH2O)” value is recorded as 0.2683 mL/cmH2O, the “Dynamic elasticity (cmH2O./mL)” value was 52.17 cmH2O./mL, the “Dynamic resistance (cmH2O · s/Ml)” value is listed as 1.067 cmH2O · s/Ml and the “Inspiratory capacity” value stood at 0.558 mL. Also, the “pulmonary function of mice with pulmonary fibrosis (in words)” value (“pulmonary function of mice” below) in assay [1] is on record as “improved”. In assay [2], the “hydroxyproline content (μg/mg protein)” value is recorded as 0.8337 μg/mg protein. For the same compound, the “interaction of TRB3 and MDM2 protein (FIG. 5, in words)” value (“interaction of TRB3 and MDM2 protein” below) in assay [3] is given as “interrupted”.

With `CSCC[C@@H]1NC(=O)[C@H](CC(C)C)NC(=O)[C@@](C)(N)CCCC=CCCC[C@@](C)(C(=O)N[C@@H](Cc2ccccc2)C(=O)N[C@H](C(=O)N[C@@H](CS)C(=O)N[C@@H](C)C(=O)N[C@@H](CCCCN)C(=O)N[C@@H](CCCCN)C(=O)N[C@@H](CC(C)C)C(=O)N[C@@H](CCCCN)C(=O)N[C@@H](CCCCN)C(=O)N[C@@H](CCCNC(=N)N)C(=O)O)[C@@H](C)O)NC(=O)[C@H](C)NC1=O` [S1, S5-Leu-Met-Ala-S5-Phe-Thr-Cys-Ala-Lys-Lys-Leu-Lys-Lys-Arg] (H-[S5]LMA[S5]FTCAKKLKKR-OH; staple 1-5; N-terminus and C-terminus assumed), in assay [1], the “Dynamic compliance (mL/cmH2O)” value turned out to be 0.2883 mL/cmH2O, the “Dynamic elasticity (cmH2O./mL)” value is 52.17 cmH2O./mL, the “Dynamic resistance (cmH2O · s/Ml)” value is 1.15 cmH2O · s/Ml and the “Inspiratory capacity” value came out at 0.71 mL. The “pulmonary function of mice” value in assay [1] is “improved”. For the same compound, the “hydroxyproline content (μg/mg protein)” value in assay [2] is 0.7087 μg/mg protein. In addition, the “interaction of TRB3 and MDM2 protein” value in assay [3] is “interrupted”.

Turning to `CSCC[C@H](NC(=O)[C@H](CC(C)C)NC(=O)[C@@H](N)Cc1c[nH]cn1)C(=O)N[C@@]1(C)CCCC=CCCC[C@@](C)(C(=O)N[C@@H](C)C(=O)N[C@@H](CCCCN)C(=O)N[C@@H](CCCCN)C(=O)N[C@@H](CC(C)C)C(=O)N[C@@H](CCCCN)C(=O)N[C@@H](CCCCN)C(=O)N[C@@H](CCCNC(=N)N)C(=O)O)NC(=O)[C@H]([C@@H](C)O)NC(=O)[C@H](Cc2ccccc2)NC(=O)[C@H](CS)NC1=O` [S4, His-Leu-Met-S5-Cys-Phe-Thr-S5-Ala-Lys-Lys-Leu-Lys-Lys-Arg] (H-HLM[S5]CFT[S5]AKKLKKR-OH; staple 4-8; N-terminus and C-terminus assumed), in assay [1], the “Dynamic compliance (mL/cmH2O)” value turned out to be 0.2617 mL/cmH2O, the “Dynamic elasticity (cmH2O./mL)” value turned out to be 59.33 cmH2O./mL, the “Dynamic resistance (cmH2O · s/Ml)” value is given as 1.267 cmH2O · s/Ml and the “Inspiratory capacity” value stood at 0.564 mL. In addition, in assay [1], the “pulmonary function of mice” value was “improved”. For the same compound, the “hydroxyproline content (μg/mg protein)” value in assay [2] worked out at 0.65 μg/mg protein. The “interaction of TRB3 and MDM2 protein” value in assay [3] is “interrupted”.

For the compound `CSCC[C@H](NC(=O)[C@H](CC(C)C)NC(=O)[C@@H](N)Cc1c[nH]cn1)C(=O)N[C@@H](C)C(=O)N[C@@H](CS)C(=O)N[C@@H](Cc1ccccc1)C(=O)N[C@H](C(=O)N[C@@]1(C)CCCC=CCCC[C@@](C)(C(=O)N[C@@H](CCCCN)C(=O)N[C@@H](CCCCN)C(=O)N[C@@H](CCCNC(=N)N)C(=O)O)NC(=O)[C@H](CCCCN)NC(=O)[C@H](CCCCN)NC(=O)[C@H](C)NC1=O)[C@@H](C)O` [S8, His-Leu-Met-Ala-Cys-Phe-Thr-S5-Ala-Lys-Lys-S5-Lys-Lys-Arg] (H-HLMACFT[S5]AKK[S5]KKR-OH; staple 8-12; N-terminus and C-terminus assumed), in assay [1], the “Dynamic compliance (mL/cmH2O)” value was 0.2583 mL/cmH2O, the “Dynamic elasticity (cmH2O./mL)” value amounted to 66.5 cmH2O./mL, the “Dynamic resistance (cmH2O · s/Ml)” value turned out to be 1.35 cmH2O · s/Ml and the “Inspiratory capacity” value worked out at 0.626 mL. Besides, the “pulmonary function of mice” value in assay [1] is recorded as “improved”. Moreover, in assay [2], the “hydroxyproline content (μg/mg protein)” value is 0.825 μg/mg protein. Besides, the “interaction of TRB3 and MDM2 protein” value in assay [3] is “interrupted”.
